Experimental data published in patent US20150291625A1 (PFIZER INC., priority 2012, published 2015).
pEC50: −log10 of the molar value. Values joined by “and” are separate entries in the source; they are usually repeats but may differ in a detail not shown here. Equal values may be shown once. Where a name gives a salt, the structure may show the parent alone. Read-outs that look alike come from different tables or passages of the source.

Experiments:
[1] = molecular target: T1, D1 (Homo sapiens, UniProt P21728); test: D1 cAMP HTRF assay (HEK293T/hD1#1 stable cell line); assay type: cell-based; set-up: expressed in transfected cells
T1 sequence (P21728 whole entry): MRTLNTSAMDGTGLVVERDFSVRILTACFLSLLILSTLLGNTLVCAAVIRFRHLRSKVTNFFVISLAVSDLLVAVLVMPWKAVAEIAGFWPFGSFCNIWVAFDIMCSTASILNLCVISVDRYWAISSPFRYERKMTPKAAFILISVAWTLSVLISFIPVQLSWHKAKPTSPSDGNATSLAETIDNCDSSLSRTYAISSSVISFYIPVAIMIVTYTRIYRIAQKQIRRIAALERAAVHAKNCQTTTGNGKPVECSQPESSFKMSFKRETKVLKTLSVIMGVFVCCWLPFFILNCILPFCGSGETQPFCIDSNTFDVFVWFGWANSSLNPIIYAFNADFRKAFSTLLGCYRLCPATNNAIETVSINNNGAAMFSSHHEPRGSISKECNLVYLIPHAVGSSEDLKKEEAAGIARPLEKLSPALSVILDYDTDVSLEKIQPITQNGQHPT
Procedure, shortened: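 Cells from a stable human D1 HEK293T line in PBS/0.5 μM IBMX were incubated with compound for 30 min at room temperature, and cAMP was then detected by competitive HTRF (1 h, room temperature). A cAMP standard curve converted ratios to cAMP, giving ratio-based and cAMP-based EC50 values.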

[2] = molecular target: T1, D1; test: Human D1 receptor binding assay ([3H]-SCH23390 competition)
[3] = Human D1 Receptor Binding, Ki (nM), Geometric mean of 2-4 determinations, a: >=5 determinations, d: single determination

| Structure (SMILES) | pEC50 [1] | Ki [2, 3] [nM] | Ki ([2]; read-out: Human D1 Receptor Binding, Ki (nM), Geometric mean of 2-4 determinations, a: >=5 determinations, d: single determination) [nM] |
| --- | --- | --- | --- |
| Cc1cc(Oc2nccc3occc23)ccc1-c1ccc(N)nc1C [Example 56, 5-[4-(furo[3,2-c]pyridin-4-yloxy)-2-methylphenyl]-6-methylpyridin-2-amine] | 6.20 and 6.36 | 98.7 | – |
| CC(NCc1cc(Oc2nccc3occc23)ccc1-c1cccc2nccn12)c1cncs1 (centres unmarked) [Example 49, N-[5-(furo[3,2-c]pyridin-4-yloxy)-2-(imidazo[1,2-a]pyridin-5-yl)benzyl]-1-(1,3-thiazol-5-yl)ethanamine, trifluoroacetate salt] | 5.43 | 121 | – |
| CCOc1nncc(C)c1-c1ccc(Oc2nccc3occc23)cc1C [Example 157, 4-[4-(3-ethoxy-5-methylpyridazin-4-yl)-3-methylphenoxy]furo[3,2-c]pyridine] | 5.45 | 354 | – |
| Cc1cc(Oc2nccc3occc23)ccc1-c1c(C)ncnc1N1Cc2cnn(C)c2C1 [Example 164, 4-{3-methyl-4-[4-methyl-6-(1-methyl-4,6-dihydropyrrolo[3,4-c]pyrazol-5(1H)-yl)pyrimidin-5-yl]phenoxy}furo[3,2-c]pyridine, formate salt] | 6.20 | 15.2 | – |
| COc1ncnc(C)c1-c1ccc(Oc2nccc3occc23)cc1C [Example 206, 4-[4-(4-methoxy-6-methylpyrimidin-5-yl)-3-methylphenoxy]furo[3,2-c]pyridine] | 6.11 and 5.90 | 160 | – |
| COc1cnnc(C)c1-c1ccc(Oc2nccc3occc23)cc1C [Example 171, 4-[4-(5-methoxy-3-methylpyridazin-4-yl)-3-methylphenoxy]furo[3,2-c]pyridine] | 6.31 | 31.1 | – |
| CNc1ncnc(C)c1-c1ccc(Oc2nccc3occc23)cc1C [Example 81, 5-[4-(furo[3,2-c]pyridin-4-yloxy)-2-methylphenyl]-N,6-dimethylpyrimidin-4-amine] | 5.75 | 270 | – |
| Cc1cc(Oc2nccc3occc23)ccc1-c1c(C)ncnc1Cl [Example 18, 4-[4-(4-chloro-6-methylpyrimidin-5-yl)-3-methylphenoxy]furo[3,2-c]pyridine] | 6.93 and 6.29 | 15.6 | – |
| COc1ccc(-c2ccc(Oc3nccc4occc34)cc2C)c(C)n1 [Example 60, 4-[4-(6-methoxy-2-methylpyridin-3-yl)-3-methylphenoxy]furo[3,2-c]pyridine, trifluoroacetate salt] | 5.54 and 5.98 | 178 | – |
| Cc1cc(Oc2nccc3occc23)ccc1-c1cccc2cnn(C)c12 [Example 200, 4-[3-methyl-4-(1-methyl-1H-indazol-7-yl)phenoxy]furo[3,2-c]pyridine] | 5.91 | 111 | – |
| Cc1cc(Oc2nccc3occc23)ccc1-c1c(C)nc(O)c2nccn12 [Example 19, 5-[4-(Furo[3,2-c]pyridin-4-yloxy)-2-methylphenyl]-6-methylimidazo[1,2-a]pyrazin-8-ol] | 6.61 and 6.37 | 24.7 | – |
| Cc1ncnc(C)c1-c1ccc(Oc2nccc3occc23)cc1CO [Example 20, [2-(4,6-Dimethylpyrimidin-5-yl)-5-(furo[3,2-c]pyridin-4-yloxy)phenyl]methanol] | 6.21 | 138 | – |
| Cc1ncccc1-c1ccc(Oc2nccc3occc23)cc1 [Example 184, 4-[4-(2-methylpyridin-3-yl)phenoxy]furo[3,2-c]pyridine] | 6.06 | 63.3 | – |
| Cc1cc(Oc2nccc3occc23)cc(C)c1-c1c(C)ncc2nccn12 [Example 162] | 6.60 and 6.35 | 10.6 | – |
| COc1ccc2cnccc2c1-c1ccc(Oc2nccc3occc23)cc1 [Example 168, 5-[4-(furo[3,2-c]pyridin-4-yloxy)phenyl]-6-methoxyisoquinoline, trifluoroacetate salt] | 6.34 | 28.6 | – |
| Cc1cc(Oc2nccc3occc23)ccc1-c1c(C)ncnc1N1CCC[C@H]1CO [Example 180, [(2S)-1-{5-[4-(furo[3,2-c]pyridin-4-yloxy)-2-methylphenyl]-6-methylpyrimidin-4-yl}pyrrolidin-2-yl]methanol, formate salt] | 6.09 | 52.9 | – |
| Cc1cc(Oc2nccc3occc23)ccc1-c1c(C)ncnc1C [Example 1, 4-[4-(4,6-Dimethylpyrimidin-5yl)-3-methylphenoxy]furo[3,2-c]pyridine] | 6.87 and 6.89 | 27.3 | – |
| c1cc(-c2ccc(Oc3nccc4occc34)cc2OCc2cscn2)n2ccnc2c1 [Example 40, 4-[4-(imidazo[1,2-a]pyridin-5-yl)-3-(1,3-thiazol-4-ylmethoxy)phenoxy]furo[3,2-c]pyridine, trifluoroacetate salt] | 5.90 | 107 | – |
| Cc1cc(Oc2nccc3occc23)ccc1-c1c(C)nn(C)c(=O)c1C [Example 159, 5-[4-(furo[3,2-c]pyridin-4-yloxy)-2-methylphenyl]-2,4,6-trimethylpyridazin-3(2H)-one] | 6.67 | 11.6 | – |

| Structure (SMILES) | pEC50 [1] | Ki [2, 3] [nM] | Ki ([2]; read-out: Human D1 Receptor Binding, Ki (nM), Geometric mean of 2-4 determinations, a: >=5 determinations, d: single determination) [nM] |
| --- | --- | --- | --- |
| Cc1cc(-c2c(C)ncc3nccn23)c(C)cc1Oc1nccc2occc12 [Example 101, 5-[4-(furo[3,2-c]pyridin-4-yloxy)-2,5-dimethylphenyl]-6-methylimidazo[1,2-a]pyrazine] | 5.46 | 431 | – |
| Cc1cc(Sc2nccc3occc23)ccc1-c1c(C)ncnc1C [Example 155, 4-{[4-(4,6-dimethylpyrimidin-5-yl)-3-methylphenyl]sulfanyl}furo[3,2-c]pyridine] | 6.00 | 138 | – |
| CCc1cc(Oc2nccc3occc23)ccc1-c1c(C)ncc2nccn12 [Example 64, 5-[2-ethyl-4-(furo[3,2-c]pyridin-4-yloxy)phenyl]-6-methylimidazo[1,2-a]pyrazine] | 6.87 | 12.1 | – |
| c1cc2occc2c(Oc2ccc(-c3nccc4occc34)cc2)n1 [Example 119, 4-[4-(furo[3,2-c]pyridin-4-yloxy)phenyl]furo[3,2-c]pyridine] | < 4.95 | 2240 | – |
| COc1cccc2c(-c3ccc(Oc4nccc5occc45)cc3)ncnc12 [Example 208, 4-[4-(furo[3,2-c]pyridin-4-yloxy)phenyl]-8-methoxyquinazoline] | 5.81 | 170 | – |
| Cc1cc(Oc2nccc3occc23)ccc1-c1c(C)cnn1C(C)(C)C [Example 15, 4-[4-(1-tert-Butyl-4-methyl-1H-pyrazol-5yl)-3-methylphenoxy]furo[3,2-c]pyridine] | 6.05 | – | 121 |
| Cc1cc(Oc2nccc3occc23)ccc1-c1c(C)cncc1C [Example 104, 4-[4-(3,5-dimethylpyridin-4-yl)-3-methylphenoxy]furo[3,2-c]pyridine] | 6.30 | 24.1 | – |
| Cc1cc(Oc2nccc3occc23)ccc1-c1cc(N)cnc1C [Example 86, 5-[4-(furo[3,2-c]pyridin-4-yloxy)-2-methylphenyl]-6-methylpyridin-3-amine] | 6.08 and 5.31 | 113 | – |
| Cc1ncnc(C)c1-c1ccc(Oc2nccc3occc23)cc1Cl [Example 127, 4-[3-chloro-4-(4,6-dimethylpyrimidin-5-yl)phenoxy]furo[3,2-c]pyridine] | 6.90 | 14 | – |
| Cc1cc(Oc2nccc3occc23)ccc1-c1c(C)ncnc1N1CC(F)C1 [Example 97, 4-{4-[4-(3-fluoroazetidin-1-yl)-6-methylpyrimidin-5-yl]-3-methylphenoxy}furo[3,2-c]pyridine, formate salt] | 6.69 | 7.52 | – |
| Cc1ncnc(C)c1-c1ccc(Oc2nccc3occc23)cc1CF [Example 21, 4-[4-(4,6-Dimethylpyrimidin-5-yl)-3-(fluoromethyl)phenoxy]furo[3,2-c]pyridine] | 7.07 | 36.2 | – |
| Cc1nccnc1-c1ccc(Oc2nccc3occc23)cc1OCc1c(C)noc1C [Example 66, 4-{3-[(3,5-dimethyl-1,2-oxazol-4-yl)methoxy]-4-(3-methylpyrazin-2-yl)phenoxy}furo[3,2-c]pyridine, formate salt] | 6.13 | 85.4 | – |
| Cc1ncccc1-c1ccc(Oc2nccc3occc23)cc1OC1CCOCC1 [Example 205, 4-[4-(2-methylpyridin-3-yl)-3-(tetrahydro-2H-pyran-4-yloxy)phenoxy]furo[3,2-c]pyridine, formate salt] | 5.33 and 5.45 | 148 | – |
| CC(C)NC(=O)COc1cc(Oc2nccc3occc23)ccc1-c1cccc2nccn12 [Example 201, 2-[5-(furo[3,2-c]pyridin-4-yloxy)-2-(imidazo[1,2-a]pyridin-5-yl)phenoxy]-N-(propan-2-yl)acetamide, trifluoroacetate salt] | 6.05 | 113 | – |
| Cc1cnnc(C)c1-c1ccc(Oc2nccc3occc23)cc1 [Example 150, 4-[4-(3,5-dimethylpyridazin-4-yl)phenoxy]furo[3,2-c]pyridine] | 6.35 | 67 | – |
| Cc1ncncc1-c1ccc(Oc2nccc3occc23)cc1C(C)(C)C#N [Example 122, 2-[5-(furo[3,2-c]pyridin-4-yloxy)-2-(4-methylpyrimidin-5-yl)phenyl]-2-methylpropanenitrile] | 5.34 | 211 | – |
| Cc1cc(Oc2nccc3occc23)ccc1-c1c(C)nc(C)c(=O)n1C [Example 117, 6-[4-(furo[3,2-c]pyridin-4-yloxy)-2-methylphenyl]-1,3,5-trimethylpyrazin-2(1H)-one] | 6.34 | 23.1 | – |
| Cc1cc(Oc2nccc3occ(C)c23)ccc1-c1c(C)ncnc1C [Example 22, 4-[4-(4,6-Dimethylpyrimidin-5-yl)-3-methylphenoxy]-3-methylfuro[3,2-c]pyridine] | 6.11 and 5.87 | 162 | – |
